In assay [1] the target is T1, vanilloid receptor 1 (VR1/TRPV1 receptor) (Homo sapiens, UniProt Q8NER1).
T1 construct: expressed in transfected cells; host or cells: CHO K1 cells (ECACC), stably transfected
The assay can be described thus: FLIPR Ca2+ influx assay, capsaicin stimulus, CHO K1 cells transfected with human VR1 gene. The conditions noted are these: for inhibition at 5 µM: CHO-K1, @ 5 μM, read-out: inhibition (as a percentage), (f) Ki (human being) Cap column; for (f) Ki (human being) [nM] Cap / Ki: functional, NE=no effect; for Ki: read-out: (f) Ki (human being) [nM] Cap. It counts as cell-based, human being. The protocol: Furthermore, preference may be given to compounds according to the invention of general formula (I) that cause a 50 percent displacement of capsaicin, which is present at a concentration of 100 nM, in a FLIPR assay with CHO K1 cells which were transfected with the human VR1 gene at a concentration of less than 2,000 nM, preferably less than 1,000 nM, particularly preferably less than 300 nM, most particularly preferably less than 100 nM, even more preferably less than 75 nM, additionally preferably less than 50 nM, most preferably less than 10 nM.
In the process, the Ca^2+ influx is quantified in the FLIPR assay with the aid of a Ca^2+-sensitive dye (type Fluo-4, Molecular Probes Europe BV, Leiden, the Netherlands) in a fluorescent imaging plate reader (FLIPR, Molecular Devices, Sunnyvale, USA), as described hereinafter.
(§1) The agonistic or antagonistic effect of the substances to be tested on the vanilloid receptor 1 (VR1) can also be determined using the following assay. In this assay, the influx of Ca^2+ through the channel is quantified with the aid of a Ca^2+-sensitive dye (type Fluo-4, Molecular Probes Europe BV, Leiden, the Netherlands) in a fluorescent imaging plate reader (FLIPR, Molecular Devices, Sunnyvale, USA).
(§2) Chinese hamster ovary cells (CHO K1 cells, European Collection of Cell Cultures (ECACC) United Kingdom) are stably transfected with the VR1 gene. For functional testing, these cells are plated out on poly-D-lysine-coated black 96-well plates having a clear base (BD Biosciences, Heidelberg, Germany) at a density of 25,000 cells/well. The cells are incubated overnight at 37° C. and 5% CO2 in a culture medium (Ham's F12 nutrient mixture, 10% by volume of FCS (foetal calf serum), 18 μg/ml of L-proline). The next day the cells are incubated with Fluo-4 (Fluo-4 2 μM, 0.01% by volume of Pluronic F127, Molecular Probes in HBSS (Hank's buffered saline solution), Gibco Invitrogen GmbH, Karlsruhe, Germany) for 30 minutes at 37° C. Subsequently, the plates are washed three times with HBSS buffer and after further incubation for 15 minutes at RT used for Ca^2+ measurement in a FLIPR assay. The Ca^2+-dependent fluorescence is measured before and after the addition of the substances to be tested (λex wavelength=488 nm, λem=540 nm). Quantification is carried out by measuring the highest fluorescence intensity (FC, fluorescence counts) over time.
The FLIPR protocol consists of 2 substance additions. First the compounds to be tested (10 μM) are pipetted onto the cells and the Ca^2+ influx is compared with the control (capsaicin 10 μM) (% activation based on the Ca^2+ signal after the addition of 10 μM of capsaicin). After 5 minutes' incubation, 100 nM of capsaicin are applied and the Ca^2+ influx is also determined.
Desensitising agonists and antagonists led to suppression of the Ca^2+ influx. The % inhibition is calculated compared to the maximum achievable inhibition with 10 μM of capsaicin.
Starting from the percentage displacement caused by different concentrations of the compounds to be tested of general formula I, IC50 inhibitory concentrations which cause a 50-percent displacement of capsaicin were calculated. K, values for the test substances were obtained by conversion by means of the Cheng-Prusoff equation (Cheng, Prusoff; Biochem. Pharmacol. 22, 3099-3108, 1973).

Assay [2] concerns the target T1, vanilloid receptor 1 (VR1/TRPV1 receptor). Nature of the assay: Functional VR1 assay, heat stimulus 45° C. In kind it is cell-based, human being. The conditions noted are these: human VR1, heat stimulus 45° C.
Source text: as §1
as §2, with “Subsequently, the plates are washed three times with HBSS buffer and after further incubation for 15 minutes at RT used for Ca^2+ measurement in a FLIPR assay.” left out

Assay [3] deals with T2, vanilloid receptor 1 (VR1/TRPV1 receptor) (Mus musculus, UniProt Q704Y3).
T2 construct: expressed in transfected cells; host or cells: CHO K1 cells stably transfected (inferred from method II)
Nature of the assay: FLIPR Ca2+ influx assay, capsaicin stimulus, mouse VR1. In kind it is cell-based. The conditions noted are these: functional, read-out: (f) Ki (mouse) [nM] Cap.
Source text: as §1
Chinese hamster ovary cells (CHO K1 cells, European Collection of Cell Cultures (ECACC) United Kingdom) are stably transfected with the VR1 gene. For functional testing, these cells are plated out on poly-D-lysine-coated black 96-well plates having a clear base (BD Biosciences, Heidelberg, Germany) at a density of 25,000 cells/well. […] The Ca^2+-dependent fluorescence is measured before and after the addition of the substances to be tested (λex wavelength=488 nm, λem=540 nm). Quantification is carried out by measuring the highest fluorescence intensity (FC, fluorescence counts) over time.
The FLIPR protocol consists of 2 substance additions. […] After 5 minutes' incubation, 100 nM of capsaicin are applied and the Ca^2+ influx is also determined. […]
Starting from the percentage displacement caused by different concentrations of the compounds to be tested of general formula I, IC50 inhibitory concentrations which cause a 50-percent displacement of capsaicin were calculated. […]

This note sets out measurements from patent publication US20120115893A1, “Substituted Bicyclic Carboxamide and Urea Compounds as Vanilloid Receptor Ligands” (Gruenenthal GmbH, priority 2010, published 2012).

T1 sequence (Q8NER1 whole entry): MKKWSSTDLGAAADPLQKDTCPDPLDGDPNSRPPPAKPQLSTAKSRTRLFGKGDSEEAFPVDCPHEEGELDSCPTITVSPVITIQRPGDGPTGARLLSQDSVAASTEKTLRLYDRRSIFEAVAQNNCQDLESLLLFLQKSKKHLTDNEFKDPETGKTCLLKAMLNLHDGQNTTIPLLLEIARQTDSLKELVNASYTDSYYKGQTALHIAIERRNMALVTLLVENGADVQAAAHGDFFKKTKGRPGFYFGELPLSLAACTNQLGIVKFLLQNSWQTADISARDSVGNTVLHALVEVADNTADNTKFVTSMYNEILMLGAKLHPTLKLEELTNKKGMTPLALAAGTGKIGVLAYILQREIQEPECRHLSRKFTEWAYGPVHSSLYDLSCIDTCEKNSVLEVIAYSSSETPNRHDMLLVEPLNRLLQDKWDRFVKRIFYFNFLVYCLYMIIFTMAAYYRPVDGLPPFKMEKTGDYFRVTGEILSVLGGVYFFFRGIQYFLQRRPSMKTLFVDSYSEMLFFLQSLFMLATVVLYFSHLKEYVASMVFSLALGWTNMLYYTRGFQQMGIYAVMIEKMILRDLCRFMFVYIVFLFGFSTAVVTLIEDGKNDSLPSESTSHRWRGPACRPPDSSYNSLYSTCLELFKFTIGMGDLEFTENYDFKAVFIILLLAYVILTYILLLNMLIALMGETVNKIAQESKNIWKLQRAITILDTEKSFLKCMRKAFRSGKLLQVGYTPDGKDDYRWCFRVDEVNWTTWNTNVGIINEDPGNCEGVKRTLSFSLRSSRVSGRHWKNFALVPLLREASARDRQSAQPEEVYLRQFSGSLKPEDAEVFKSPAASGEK
T2 sequence (Q704Y3 whole entry): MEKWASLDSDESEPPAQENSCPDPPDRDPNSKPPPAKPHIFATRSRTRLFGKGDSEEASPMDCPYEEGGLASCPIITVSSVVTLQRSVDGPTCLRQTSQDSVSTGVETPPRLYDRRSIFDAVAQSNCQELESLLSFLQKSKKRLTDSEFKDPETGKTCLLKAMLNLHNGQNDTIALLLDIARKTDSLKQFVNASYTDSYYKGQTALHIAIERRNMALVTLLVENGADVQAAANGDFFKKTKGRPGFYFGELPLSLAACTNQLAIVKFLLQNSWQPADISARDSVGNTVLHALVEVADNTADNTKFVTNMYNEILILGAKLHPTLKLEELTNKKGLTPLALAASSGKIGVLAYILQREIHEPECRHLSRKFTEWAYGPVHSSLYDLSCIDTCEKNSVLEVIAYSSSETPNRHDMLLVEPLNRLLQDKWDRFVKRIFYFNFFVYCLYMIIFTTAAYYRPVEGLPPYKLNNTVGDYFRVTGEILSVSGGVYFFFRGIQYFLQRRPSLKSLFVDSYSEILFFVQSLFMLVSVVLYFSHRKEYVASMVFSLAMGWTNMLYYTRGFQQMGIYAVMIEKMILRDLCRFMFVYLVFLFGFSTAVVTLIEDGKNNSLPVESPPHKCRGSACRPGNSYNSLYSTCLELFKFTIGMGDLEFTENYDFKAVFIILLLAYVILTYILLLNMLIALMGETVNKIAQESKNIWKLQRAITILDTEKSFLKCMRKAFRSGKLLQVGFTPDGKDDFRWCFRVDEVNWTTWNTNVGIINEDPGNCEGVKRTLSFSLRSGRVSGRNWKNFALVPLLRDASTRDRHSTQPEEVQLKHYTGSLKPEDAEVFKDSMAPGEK

For `CC(C)(C)c1ccc2c(c1)CC[C@H]2NC(=O)NCc1cc(C(F)(F)F)nn1-c1cccc(Cl)c1` [Example 2, (R)-1-(5-tert-butyl-2,3-dihydro-1H-inden-1-yl)-3-((1-(3-chlorophenyl)-3-(trifluoromethyl)-1H-pyrazol-5-yl)methyl)urea], in assay [1], the inhibition – broadly, the share of the control response that was lost under treatment – at 5 µM is 33%.

As to `CC(C)(C)c1ccc2c(c1)CC[C@@H]2NC(=O)NCc1cc(C(F)(F)F)nn1-c1cccc(Cl)c1` [Example 3, (S)-1-(5-tert-butyl-2,3-dihydro-1H-inden-1-yl)-3-((1-(3-chlorophenyl)-3-(trifluoromethyl)-1H-pyrazol-5-yl)methyl)urea], the “(f) Ki (human being) [nM] Cap” value in assay [1] is listed as “Ne”.

Regarding `CC(C)(C)c1ccc2c(c1)C[C@H](NC(=O)NCc1cc(C(C)(C)C)nn1-c1cccc(Cl)c1)C2` [Example 4, (R)-1-((3-tert-butyl-1-(3-chlorophenyl)-1H-pyrazol-5-yl)methyl)-3-(5-tert-butyl-2,3-dihydro-1H-inden-2-yl)ure], in assay [1], the “(f) Ki (human being) [nM] Cap” value was “Ne”.

Turning to `Cn1ncc2c1CCCC2NC(=O)NCc1cc(C(F)(F)F)nn1-c1cccc(Cl)c1` (stereo not drawn) [Example 7, 1-((1-(3-chlorophenyl)-3-(trifluoromethyl)-1H-pyrazol-5-yl)methyl)-3-(1-methyl-4,5,6,7-tetrahydro-1H-indazol-4-yl)urea], the “(f) Ki (human being) [nM] Cap” value in assay [1] was “Ne”.

`CC(C(=O)NCc1cc(C(F)(F)F)nn1-c1cccc(Cl)c1)C1CCCc2ccc(O)cc21` (stereo not drawn) [Example 12, N-((1-(3-chlorophenyl)-3-(trifluoromethyl)-1H-pyrazol-5-yl)methyl)-2-(7-hydroxy-1,2,3,4-tetrahydronaphthalen-1-yl)propanamide]: the inhibition at 2.5 µM in assay [2] (@ 2.5 μM, read-out: inhibition (as a percentage), IC50 (human being) 45° C. column) was 30%. In addition, in assay [1], the Ki – broadly, a dissociation constant, usually derived from enzyme kinetics or from competition with a known ligand – stood at 49.2 nM.

On to `O=C(NCc1cc(C(F)(F)F)nn1-c1cccc(Cl)c1)NC1CCCc2ccc(O)cc21` (stereo not drawn) [Example 13, 1-((1-(3-chlorophenyl)-3-(trifluoromethyl)-1H-pyrazol-5-yl)methyl)-3-(7-hydroxy-1,2,3,4-tetrahydronaphthalen-1-yl)urea], for which the half-inhibitory concentration (IC50) (commonly the concentration that inhibits the measured activity by half) in assay [2] (read-out: IC50 (human being) [nM], 45° C.) worked out at 1860 nM. The Ki in assay [1] was found to be 16.1 nM.

Turning to `CC(C)(C)c1cc(CNC(=O)NC2CCCc3ccc(O)cc32)n(-c2cccc(Cl)c2)n1` (stereo not drawn) [Example 14, 1-((3-tert-butyl-1-(3-chlorophenyl)-1H-pyrazol-5-yl)methyl)-3-(7-hydroxy-1,2,3,4-tetrahydronaphthalen-1-yl)urea], the values for the Ki in assay [3] and in assay [1] were 132 nM and 7.7 nM, respectively.

For `CC(C(=O)NCc1cc(C(F)(F)F)nn1-c1ccc(F)c(Cl)c1)C1CCCc2ccc(O)cc21` (stereo not drawn) [Example 15, N-((1-(3-chloro-4-fluorophenyl)-3-(trifluoromethyl)-1H-pyrazol-5-yl)methyl)-2-(7-hydroxy-1,2,3,4-tetrahydronaphthalen-1-yl)propanamide], in assay [1], the Ki worked out at 29.5 nM.

As to `O=C(NCc1cc(C(F)(F)F)nn1-c1cccc(Cl)c1)NC1CCCc2cnccc21` (stereo not drawn) [Example 19, 1-((1-(3-chlorophenyl)-3-(trifluoromethyl)-1H-pyrazol-5-yl)methyl)-3-(5,6,7,8-tetrahydroisoquinolin-5-yl)urea], the inhibition at 5 µM in assay [1] turned out to be 38%.

For `CC(C)(C)c1cc(CNC(=O)NC2CCCc3cnccc32)n(-c2cccc(Cl)c2)n1` (stereo not drawn) [Example 20, 1-((3-tert-butyl-1-(3-chlorophenyl)-1H-pyrazol-5-yl)methyl)-3-(5,6,7,8-tetrahydroisoquinolin-5-yl)urea], in assay [1], the Ki was found to be 73.6 nM.

Regarding “N-((1-(3-chlorophenyl)-3-(trifluoromethyl)-1H-pyrazol-5-yl)methyl)-2-(7-hydroxy-1,2,3,4-tetrahydronaphthalen-1-yl)propanamide [Example 10]”, the entries for the “inhibition (as a percentage), (f) Ki (human being) Cap column” value in assay [1] (@ 1 μM) and in assay [1] (@ 5 μM) were 14% @ 1 μM and 34% @ 5 μM, respectively.
